Values of other authors as cited in patent US8492403B2, “Bicyclic derivatives as modulators of voltage gated ion channels” (Vertex Pharmaceuticals Incorporated, priority 2005, dated 2013).

Experiments:
[1] = neuropathic pain; cited from earlier work
NaV 1.8 = NaV 1.8 (Homo sapiens, UniProt Q9Y5Y9); conditions: read-out: TTX IC50; cited from earlier work
NaV 1.3 = NaV 1.3 (Homo sapiens, UniProt Q9NY46); conditions: read-out: TTX IC50; cited from earlier work
Sequence of NaV 1.3 (Q9NY46 whole entry, looked up): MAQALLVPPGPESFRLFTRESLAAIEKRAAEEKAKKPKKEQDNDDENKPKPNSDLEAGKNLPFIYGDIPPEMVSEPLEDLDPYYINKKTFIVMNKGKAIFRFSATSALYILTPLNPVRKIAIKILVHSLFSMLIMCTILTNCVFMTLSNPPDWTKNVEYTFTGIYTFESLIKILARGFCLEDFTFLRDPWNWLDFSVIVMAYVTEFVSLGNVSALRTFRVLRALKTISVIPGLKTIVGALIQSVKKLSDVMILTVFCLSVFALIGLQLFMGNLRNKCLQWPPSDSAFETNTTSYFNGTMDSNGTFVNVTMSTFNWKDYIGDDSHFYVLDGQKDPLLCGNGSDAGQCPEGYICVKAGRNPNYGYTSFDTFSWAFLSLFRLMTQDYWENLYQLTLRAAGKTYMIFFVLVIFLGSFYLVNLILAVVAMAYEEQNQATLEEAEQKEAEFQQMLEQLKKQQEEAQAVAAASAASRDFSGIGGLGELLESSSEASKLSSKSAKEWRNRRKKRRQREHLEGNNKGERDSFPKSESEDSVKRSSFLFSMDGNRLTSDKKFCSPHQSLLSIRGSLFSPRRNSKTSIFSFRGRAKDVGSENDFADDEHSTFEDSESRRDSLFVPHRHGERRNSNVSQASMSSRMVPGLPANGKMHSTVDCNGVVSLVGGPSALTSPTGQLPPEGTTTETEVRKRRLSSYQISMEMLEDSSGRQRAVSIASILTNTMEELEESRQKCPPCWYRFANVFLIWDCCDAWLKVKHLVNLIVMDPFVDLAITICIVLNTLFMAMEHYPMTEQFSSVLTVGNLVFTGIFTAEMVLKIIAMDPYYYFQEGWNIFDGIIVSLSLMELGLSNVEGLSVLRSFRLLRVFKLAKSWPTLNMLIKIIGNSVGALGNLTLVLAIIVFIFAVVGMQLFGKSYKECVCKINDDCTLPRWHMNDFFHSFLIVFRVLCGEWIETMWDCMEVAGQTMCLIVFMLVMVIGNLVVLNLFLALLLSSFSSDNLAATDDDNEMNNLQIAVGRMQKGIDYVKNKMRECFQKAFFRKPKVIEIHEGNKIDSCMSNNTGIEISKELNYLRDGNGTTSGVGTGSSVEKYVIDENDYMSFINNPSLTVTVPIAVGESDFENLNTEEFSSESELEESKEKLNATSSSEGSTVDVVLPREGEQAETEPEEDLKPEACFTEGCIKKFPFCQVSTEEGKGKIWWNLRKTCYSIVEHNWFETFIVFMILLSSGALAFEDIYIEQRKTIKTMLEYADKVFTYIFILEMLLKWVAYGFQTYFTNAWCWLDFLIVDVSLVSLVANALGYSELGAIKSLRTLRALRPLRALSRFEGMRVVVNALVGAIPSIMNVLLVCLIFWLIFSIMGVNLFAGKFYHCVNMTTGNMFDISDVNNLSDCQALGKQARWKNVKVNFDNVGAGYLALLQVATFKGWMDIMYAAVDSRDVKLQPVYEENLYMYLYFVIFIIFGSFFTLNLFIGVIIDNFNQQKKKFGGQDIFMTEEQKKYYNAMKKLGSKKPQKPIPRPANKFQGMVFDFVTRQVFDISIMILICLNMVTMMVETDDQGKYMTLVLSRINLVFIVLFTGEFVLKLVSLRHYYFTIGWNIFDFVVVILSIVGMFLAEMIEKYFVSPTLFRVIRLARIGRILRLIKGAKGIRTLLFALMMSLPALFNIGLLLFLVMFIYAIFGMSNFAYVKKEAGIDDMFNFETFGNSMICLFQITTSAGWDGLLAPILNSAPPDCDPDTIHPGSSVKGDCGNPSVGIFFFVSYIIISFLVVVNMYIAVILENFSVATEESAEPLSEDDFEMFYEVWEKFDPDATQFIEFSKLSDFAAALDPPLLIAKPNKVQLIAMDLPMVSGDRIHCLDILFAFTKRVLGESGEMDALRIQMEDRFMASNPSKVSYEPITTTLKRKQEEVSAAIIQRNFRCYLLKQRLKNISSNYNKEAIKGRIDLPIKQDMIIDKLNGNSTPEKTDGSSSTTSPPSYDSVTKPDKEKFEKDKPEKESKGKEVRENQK

Sequence of NaV 1.8 (Q9Y5Y9 whole entry, looked up): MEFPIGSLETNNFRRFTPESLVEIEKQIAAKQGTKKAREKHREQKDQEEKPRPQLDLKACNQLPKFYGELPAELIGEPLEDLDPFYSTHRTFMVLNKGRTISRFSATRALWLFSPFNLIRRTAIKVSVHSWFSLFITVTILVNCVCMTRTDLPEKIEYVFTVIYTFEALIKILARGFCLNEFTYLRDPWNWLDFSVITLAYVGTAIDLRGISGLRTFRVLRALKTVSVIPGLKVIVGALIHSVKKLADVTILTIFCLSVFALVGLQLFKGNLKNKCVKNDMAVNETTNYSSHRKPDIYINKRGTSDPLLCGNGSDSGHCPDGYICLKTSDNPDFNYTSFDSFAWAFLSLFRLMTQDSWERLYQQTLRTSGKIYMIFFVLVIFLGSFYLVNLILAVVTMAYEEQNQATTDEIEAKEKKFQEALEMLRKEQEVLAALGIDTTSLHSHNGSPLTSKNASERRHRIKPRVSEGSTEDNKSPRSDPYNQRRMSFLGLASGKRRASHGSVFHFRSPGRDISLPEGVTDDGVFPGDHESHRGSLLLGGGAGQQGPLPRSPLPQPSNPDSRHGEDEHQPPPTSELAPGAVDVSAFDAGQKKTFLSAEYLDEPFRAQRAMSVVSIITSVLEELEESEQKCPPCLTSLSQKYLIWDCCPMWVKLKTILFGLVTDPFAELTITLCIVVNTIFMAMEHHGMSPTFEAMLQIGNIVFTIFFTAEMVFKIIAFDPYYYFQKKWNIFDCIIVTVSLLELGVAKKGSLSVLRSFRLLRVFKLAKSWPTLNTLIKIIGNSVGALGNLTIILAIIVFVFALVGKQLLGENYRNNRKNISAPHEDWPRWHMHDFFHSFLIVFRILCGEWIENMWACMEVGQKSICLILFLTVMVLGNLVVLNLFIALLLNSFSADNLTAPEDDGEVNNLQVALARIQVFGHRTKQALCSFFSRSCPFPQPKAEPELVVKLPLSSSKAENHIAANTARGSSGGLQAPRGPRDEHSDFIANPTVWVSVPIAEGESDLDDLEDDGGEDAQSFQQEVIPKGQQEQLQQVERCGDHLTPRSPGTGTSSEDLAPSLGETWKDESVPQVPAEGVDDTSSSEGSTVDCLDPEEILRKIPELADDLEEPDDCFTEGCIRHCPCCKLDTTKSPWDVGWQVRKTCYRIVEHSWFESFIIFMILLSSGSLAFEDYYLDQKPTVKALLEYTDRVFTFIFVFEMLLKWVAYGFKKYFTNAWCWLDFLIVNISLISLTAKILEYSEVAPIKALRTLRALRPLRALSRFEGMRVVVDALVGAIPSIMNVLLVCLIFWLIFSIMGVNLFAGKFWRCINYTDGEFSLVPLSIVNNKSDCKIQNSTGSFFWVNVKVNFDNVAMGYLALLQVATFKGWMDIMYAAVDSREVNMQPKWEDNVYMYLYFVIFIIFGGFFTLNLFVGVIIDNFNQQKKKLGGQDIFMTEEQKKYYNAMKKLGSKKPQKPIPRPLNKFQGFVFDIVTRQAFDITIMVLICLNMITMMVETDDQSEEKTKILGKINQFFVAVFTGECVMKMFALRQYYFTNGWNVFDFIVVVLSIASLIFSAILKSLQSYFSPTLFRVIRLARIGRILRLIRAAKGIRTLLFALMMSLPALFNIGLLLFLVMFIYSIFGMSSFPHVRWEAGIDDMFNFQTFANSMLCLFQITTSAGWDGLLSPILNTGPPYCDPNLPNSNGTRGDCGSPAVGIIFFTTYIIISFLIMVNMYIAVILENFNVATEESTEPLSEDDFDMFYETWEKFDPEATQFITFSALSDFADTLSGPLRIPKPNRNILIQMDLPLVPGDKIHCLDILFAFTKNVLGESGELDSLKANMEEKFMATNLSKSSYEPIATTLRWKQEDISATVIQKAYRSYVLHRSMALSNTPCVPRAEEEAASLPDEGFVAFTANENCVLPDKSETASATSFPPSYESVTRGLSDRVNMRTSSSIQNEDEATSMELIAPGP

Compound	share of patients in which it works [1] [%]	IC50 (NaV 1.8) [µM]	IC50 (NaV 1.3) [nM]
NCC1(CC(=O)O)CCCCC1 [Gabapentin]	60		
NC1=N[C@H](O)[C@H]2[C@H]3O[C@]4(O)O[C@@H]([C@@H](O)[C@@]2(N1)[C@@H]4O)[C@]3(O)CO [TTX, tetrodotoxin]		> 50	15
